# From patent publication US10278909B2, “Composition suitable to preserve the physiological condition of skin and hair and reestablish their regenerative functions” (GIULIANI S.P.A., priority 2014, dated 2019)
# Tested on: Human Hair Follicle Outer Root Sheath Cells (HHFORSC)
# Assay: ATP assay in Human Hair Follicle Outer Root Sheath Cells (Abcam ATP-assay kit, absorbance 570 nm)
# Type: cell-based
# Conditions: 24 h treatment, carnitine 10 mg/ml, caffeine 10 mg/ml, arginine 30 mg/ml (alone or combined); for ATP % vs control: control = culture medium only = 100
# Description: Human Hair Follicle Outer Root Sheath Cells (HHFORSC), supplied by Innoprot, are isolated by ScienCell Research Labs from the outer sheath of the root of human hair. The cell line was grown in culture medium for mesenchymal stem cells (MSCM): 500 mL basal medium, 20% fetal bovine serum (FBS), 1% growth supplement for mesenchymal stem cells (MSCGS), 1% penicillin/streptomycin (P/S solution) and maintained in 25 cm^2 culture flasks at 37° C. and 5% CO2. Before proceeding with plating the cells, the flask cells is coated with poly-L-lysine (2 μg/cm^2). Every two days, the confluent cultures are divided 1:3-1:6, after washing with DPBS (Dulbecco's Phosphate-Buffered Saline), using a solution of T/E (trypsin/EDTA solution) and TNS (Trypsin Neutralization Solution) and seeded at 2-5×^4 cell/cm^2, 37° C., 5% CO2. When the cells (HHFORSC) reach about 80% confluence, they are detached with trypsin/EDTA and seeded at a density of 1×10^6 cells/ml in 12-well plates and then incubated at 37° C., 5% CO2 (24 h). When the cells reach about 80% confluence, they are treated with samples of the following compounds or mixtures of compounds, tested at the concentrations described hereafter: • Carnitine 10 mg/ml • Caffeine 10 mg/ml • Arginine 30 mg/ml • Carnitine 10 mg/ml+Caffeine 10 mg/ml • Carnitine 10 mg/ml+Arginine 30 mg/ml • Caffeine 10 mg/ml+Arginine 30 mg/ml • Carnitine 10 mg/ml+Caffeine 10 mg/ml+Arginine 30 mg/ml The cells treated with culture medium only were used as control. All the cells were incubated at 37° C., 5% CO2 for 24 h. […] The samples were then lysed by pipetting repeatedly and centrifuged to remove insoluble materials, and finally stored on ice until use. […] The samples were incubated at room temperature for 30 minutes, in the dark. The absorbance was read at a wavelength of 570 nm with a reference filter of 630 nm in a microplate reader Biotek ELX808 using a predetermined protocol and after having correctly defined a layout of the plate. The ATP concentration was calculated by interpolating the data of the standard curve after subtraction of the blank: [ATP] (nmol/μl)=Ts/Sv where Ts is the amount of ATP from the standard curve (nmol); SV is the volume of the sample (before dilution) added to the sample wells (μl).
structure (smiles),measurement,value
C[N+](C)(C)CC(O)CC(=O)[O-] (stereo not drawn) [Carnitine],Δ % (increase in the production of cellular ATP vs untreated control),34.164%
same,ATP % vs control,134.16%
Cn1c(=O)c2c(ncn2C)n(C)c1=O [Caffeine],Δ % (increase in the production of cellular ATP vs untreated control),26.843%
same,ATP % vs control,126.84%
N=C(N)NCCC[C@H](N)C(=O)O [Arginine],Δ % (increase in the production of cellular ATP vs untreated control),32.944%
same,ATP % vs control,132.94%
